As a reminder, the melting point is the temperature, or range, at which the solid turns liquid.

For the compound `CCN(CC)C(=O)/C=C(\C)c1ccc(OCCCCl)c2oc(C(C)=O)cc12` [Example 137, (E)-3-[2-acetyl-7-(3-chloropropoxy)benzofuran-4-yl]-2-butenoic acid diethylamide], the melting point fell in the range of 80.6 to 82.1 °C.

Compound `CC(=O)c1oc2ccc(/C(C)=C/C(=O)N3CCN(c4ccccc4)CC3)cc2c1NC(=O)/C(C#N)=C(/C)O` [Example 95, N-{2-acetyl-5-[1-methyl-3-oxo-3-(4-phenylpiperazin-1-yl)-(E)-1-propenyl]benzofuran-3-yl}-2-cyano-3-hydroxy-(Z)-2-butenamide] gave a melting point of 167.6 to 168.7 °C. As for `COc1ccc(CCNC(=O)/C=C(\C)c2ccc3oc(C(C)=O)c(NC(=O)/C(C#N)=C(/C)O)c3c2)cc1OC` [Example 103, N-(2-acetyl-5-{(E)-2-[2-(3,4-dimethoxyphenyl)ethylcarbamoyl]-1-methylvinyl}benzofuran-3-yl)-2-cyano-3-hydroxy-(Z)-2-butenamide], the melting point was in the range of 176.7 to 179.7 °C. With `COc1ccc(NC(=O)/C(C#N)=C(/C)O)c2cc(C(C)=O)oc12` [Example 112, (Z)-N-(2-acetyl-7-methoxybenzofuran-4-yl)-2-cyano-3-hydroxy-2-butenamide] the figure was 243.4 to 246.4 °C.

As for `CCOC(=O)c1oc2ccc(/C(C)=C/C(=O)N(CC)CC)cc2c1N` [Example 15, Ethyl (E)-3-amino-5-(2-diethylcarbamoyl-1-methylvinyl)benzofurane-2-carboxylate], the melting point is 159.5 to 162 °C. As to `COc1cccc2c(NC(=O)CCCl)c(C(C)=O)oc12` [Example 204, N-(2-acetyl-7-methoxybenzofuran-3-yl)-3-chloropropionamide], the melting point was in the range of 169.1 to 170.2 °C. With `COc1ccc(NC(=O)/C=C(\C)c2cc3cccc(OC(c4ccccc4)c4ccccc4)c3o2)cc1OC` [Example 45, (E)-3-(7-benzhydryloxybenzofuran-2-yl)-N-(3,4-dimethoxyphenyl)-2-butenamide] the figure was 93.9 to 94.5 °C.

`COc1ccc(NC(=O)/C=C/C=C(\Cl)c2cc3cccc(OCCCCl)c3o2)cc1OC` [Example 53, (2E,4Z)-5-chloro-5-[7-(3-chloropropoxy)benzofuran-2-yl]penta-2,4-dienoic acid (3,4-dimethoxyphenyl)amide] returned a melting point of 167.5 to 169 °C. In turn, `CCOC(=O)c1oc2ccccc2c1NC(=O)/C(C#N)=C(/C)O` [Example 107, Ethyl (Z)-3-(2-cyano-3-hydroxy-2-butenoylamino)benzofurane-2-carboxylate] had a melting point of 147.5 to 150.1 °C. `Clc1ccc(-c2c(-c3csc(-c4ccccc4)n3)oc3c(Cl)cccc23)cc1` [Example 213, 4-[7-chloro-3-(4-chlorophenyl)benzofuran-2-yl]-2-phenylthiazole]: the melting point lay within 165.5 to 166 °C. Compound `COc1cccc2cc(/C(Cl)=C/C=C/C(=O)N3CCOCC3)oc12` [Example 138, (2E,4Z)-5-chloro-5-(7-methoxybenzofuran-2-yl)-1-morpholin-4-ylpenta-2,4-dien-1-one] yielded a melting point of 185.4 to 186.6 °C. On to `CCN(CC)C(=O)/C=C(\C)c1ccc(OCCCSc2ccc(Cl)cc2)c2oc(C(C)=O)cc12` [Example 139, (E)-3-{2-acetyl-7-(3-(4-chlorophenylsulfanyl)propoxy)benzofuran-4-yl}-2-butenoic acid diethylamide], for which the melting point was 110.5 to 113.5 °C. As to `CN(C)/C=C/C(=O)c1oc2ccc(Br)cc2c1NC(=O)/C=C/c1ccccc1` [Example 176, (E,E)-N-[5-bromo-2-(3-dimethylaminoacryloyl)-benzofuran-3-yl]-3-phenylacrylamide], the melting point was determined as 248 °C.

For `COc1ccc(CCNC(=O)/C=C(\C)c2ccc3oc(C(C)=O)cc3c2)cc1OC` [Example 26, (E)-3-(2-acetylbenzofuran-5-yl)-N-[2-(3,4-dimethoxyphenyl)ethyl]-2-butenamide], the melting point fell in the range of 112.7 to 114.3 °C. Turning to `CCN(CC)C(=O)/C=C(\C)c1cc2c(Br)cc(Br)c(OCCCC(=O)O)c2o1` [Example 31, (E)-4-[4,6-dibromo-2-(2-diethylcarbamoyl-1-methylvinyl)benzofuran-7-yloxy]butyric acid], the melting point was in the range of 121 to 123 °C. `N#C/C=C/C=C(\Cl)c1cc2cc(Br)ccc2o1` [Example 154, (2E,4Z)-5-(5-bromobenzofuran-2-yl)-5-chloropenta-2,4-dienenitrile] registered a melting point of 179 to 185 °C. `COc1ccc(/C=C/C(=O)Nc2c(C(C)=O)oc3ccc(Br)cc23)cc1` [Example 178, (E)-N-(2-acetyl-5-bromobenzofuran-3-yl)-3-(4-methoxyphenyl)acrylamide] registered a melting point of 182.5 to 184.7 °C. In the case of `CC(=O)c1cc2cc(/C(C)=C/C(=O)N3CCOCC3)ccc2o1` [Example 27, (E)-3-(2-acetylbenzofuran-5-yl)-1-morpholino-2-buten-1-one], the melting point lay within 138.9 to 141.8 °C. Turning to `C/C(=C\C(=O)N1CCOCC1)c1ccc2oc(C(=O)c3ccc(C#N)cc3)c(NC(=O)c3cnoc3C)c2c1` [Example 81, (E)-N-[2-(4-cyanobenzoyl)-5-(1-methyl-3-morpholino-3-oxo-1-propenyl)benzofuran-3-yl]-5-methylisoxazole-4-carboxamide], the melting point fell in the range of 229.4 to 232.5 °C.

`COc1ccc(/C=C/C(=O)c2oc3ccc(Br)cc3c2NC(=O)CNCc2ccccc2)cc1` [Example 196, (E)-2-benzylamino-N-{5-bromo-2-[3-(4-methoxyphenyl)acryloyl]benzofuran-3-yl}acetamide] yielded a melting point of 174.2 to 176.5 °C. As for `C/C(O)=C(\C#N)C(=O)Nc1c(C(=O)/C=C/c2ccccc2)oc2ccc(Br)cc12` [Example 174, 2-cyano-3-hydroxy-(Z)-2-butenoic acid [5-bromo-2-((E)-3-phenylacryloyl)benzofuran-3-yl]amide], the melting point lay within 261.5 to 262.8 °C. To `COc1cccc2cc(C(C)NC(C)=O)oc12` (stereo not shown) [Example 191, N-[1-(7-methoxybenzofuran-2-yl)ethyl]acetamide] belongs 90 to 91.8 °C; to `COc1ccc(C(=O)Nc2c(Cl)oc3ccc(Br)cc23)cc1` [Example 200, N-(5-bromo-2-chlorobenzofuran-3-yl)-4-methoxybenzamide], 195.5 to 197 °C. With `Cc1oncc1C(=O)Nc1c(C(=O)c2ccc(C#N)cc2)oc2ccc(Br)cc12` [Example 73, N-[5-bromo-2-(4-cyanobenzoyl)benzofuran-3-yl]-5-methylisoxazole-4-carboxamide] the figure was 236.3 to 238.9 °C; with `COc1ccc2oc(-c3nc(N=CN(C)C)sc3/C=N/CCO)c(-c3ccc(Cl)cc3)c2c1` [Example 223, N′-{4-[3-(4-chlorophenyl)-5-methoxybenzofuran-2-yl]-5-[(2-hydroxyethylimino)methyl]thiazol-2-yl}-N,N-dimethylformamidine], 167.8 to 169.2 °C. Turning to `C/C(O)=C(\C#N)C(=O)Nc1c(C#N)oc2ccc(Br)cc12` [Example 104, (Z)-N-(5-bromo-2-cyanobenzofuran-3-yl)-2-cyano-3-hydroxy-2-butenamide], the melting point lay within 206.3 to 208.3 °C.

`COc1ccc(CCNC(=O)/C=C(\C)c2cc3cccc(OC(C)c4ccccc4)c3o2)cc1OC` (stereo not shown) [Example 164, (E)-3-[7-(1-phenylethoxy)benzofuran-2-yl]-2-butenoic acid [2-(3,4-dimethoxyphenyl)ethyl]amide]: the melting point was in the range of 109 to 113 °C.

`COc1cccc2c(NC(=O)/C=C/c3ccccc3)c(Cl)oc12` [Example 181, (E)-N-(2-chloro-7-methoxybenzofuran-3-yl)-3-phenylacrylamide] registered a melting point of 220 to 221.3 °C. `COc1ccc2oc(-c3csc(C)n3)c(-c3ccc(Cl)cc3)c2c1` [Example 217, 4-[3-(4-chlorophenyl)-5-methoxybenzofuran-2-yl]-2-methylthiazole] yielded a melting point of 105.8 to 106.5 °C. `COc1ccc(/C=C/C(=O)c2oc3ccc(Br)cc3c2NC(=O)CCNCc2ccccc2)cc1` [Example 203, (E)-3-benzylamino-N-{5-bromo-2-[3-(4-methoxyphenyl)acryloyl]benzofuran-3-yl}propionamide] came in with a melting point of 123.8 to 126.5 °C. `CCc1c(/C(C)=C/C(=O)NCCc2ccc(OC)c(OC)c2)oc2ccccc12` [Example 167, 3-(3-ethylbenzofuran-2-yl)-2-butenoic acid [2-(3,4-dimethoxyphenyl)ethyl]amide] had a melting point of 131 to 135 °C. With `Cc1oncc1C(=O)Nc1c(C#N)oc2ccccc12` [Example 86, N-(2-cyanobenzofuran-3-yl)-5-methylisoxazole-4-carboxamide] the figure was 227.3 to 230.4 °C; with `N#CCC(=O)Nc1c(C(=O)c2ccc(Cl)cc2)oc2ccc(Br)cc12` [Example 197, N-[5-bromo-2-(4-chlorobenzoyl)benzofuran-3-yl]-2-cyanoacetamide], 245.4 to 249.5 °C. Take `CC(=O)c1oc2ccc(Br)cc2c1NC(=O)/C=C/CCc1ccccc1` [Example 175, (E)-5-phenyl-2-penteneoic acid (2-acetyl-5-bromobenzofuran-3-yl)amide]: the melting point fell in the range of 129 to 131 °C. To `CCN(CC)C(=O)/C=C(\C)c1ccc2oc(C(=O)Nc3cccc(OC)c3)c(NC(=O)c3cnoc3C)c2c1` [Example 186, (E)-5-methyl-isoxazole-4-carboxylic acid [5-((E)-2-diethylcarbamoyl-1-methylvinyl)-2-(3-methoxyphenylcarbamoyl)benzofuran-3-yl]amide] belongs 204 to 206 °C; to `CC(=O)c1oc2ccccc2c1NC(=O)/C(C#N)=C(/C)O` [Example 66, (Z)-N-(2-acetylbenzofuran-3-yl)-2-cyano-3-hydroxy-2-butenamide], 206.1 to 208.1 °C. To `COc1cccc2c(NC(=O)/C(C#N)=C(/C)O)c(C(=O)c3ccc(Br)cc3)oc12` [Example 99, (Z)-N-[2-(4-bromobenzoyl)-7-methoxybenzofuran-3-yl]-2-cyano-3-hydroxy-2-butenamide] belongs 131.7 to 133.4 °C.
